The experiment has as its system P388. Put plainly: Cytotoxicity, 50% inhibitory concentration against P388 Mouse T cell leukemia cell line by MTT assay. It is filed as functional, cell-based.

Structures are written as SMILES. pIC50: −log10 of the molar value.

Among the data in ChEMBL document CHEMBL1135715, “DNA cleavage potency, cytotoxicity, and mechanism of action of a novel class of enediyne prodrugs” (J Med Chem, 2002) are IC50 values, retold here.

Regarding `COCC(=O)OC1C#CCCCCC#C/C1=C\c1ccccc1` (stereo not given), the pIC50 (commonly −log10 of the IC50, conventionally taken in molar units) was 4.64.

With `COCC(=O)OC(/C1=C/C#CCCCCC#C1)c1ccccc1` (stereo not given), the pIC50 was 5.11.

On to `CC(=O)OC1C#CCCCCC#C/C1=C\c1ccc2ccccc2c1` (stereo not given), for which the pIC50 is 5.55. Against the preceding compound, the pIC50 is 0.44 log units higher.

For the compound `COc1ccc(C(O)/C2=C/C#CCCCCC#C2)cc1` (stereo not given), the pIC50 is 4.89.

In turn, `COCC(=O)OC(/C1=C/C#CCCCCC#C1)c1cccc2ccccc12` (stereo not given) gave a pIC50 of 5.42.

As to `OC1C#CCCCCC#C/C1=C\c1ccc2ccccc2c1` (stereo not given), the pIC50 was 5.44. This pIC50 and that of the compound before are within 0.2 log units of each other.

Compound `OC1C#CCCCCC#C/C1=C\c1ccccc1` (stereo not given) had a pIC50 of 4.60.

The compound `COc1ccc(/C=C2\C#CCCCCC#CC2O)cc1` (stereo not given) showed a pIC50 of 5.24.

`COCC(=O)OC1C#CCCCCC#C/C1=C\c1cccc2ccccc12` (stereo not given) gave a pIC50 of 4.92.

The compound `CC(=O)OC1C#CCCCCC#C/C1=C\c1cccc2ccccc12` (stereo not given) had a pIC50 of 5.62. This pIC50 is 0.70 log units higher than that of the compound before.

`CC(=O)OC1C#CCCCCC#C/C1=C\c1ccccc1` (stereo not given) had a pIC50 of 4.32.

`OC1C#CCCCCC#C/C1=C\c1cccc2ccccc12` (stereo not given): the pIC50 was 4.39.

Compound `COc1ccc(/C=C2\C#CCCCCC#CC2OC(C)=O)cc1` (stereo not given) gave a pIC50 of 4.82. This pIC50 lies 0.43 log units higher than the previous one.

On to `COCC(=O)OC(/C1=C/C#CCCCCC#C1)c1ccc2ccccc2c1` (stereo not given), for which the pIC50 is 5.02.

Regarding `COCC(=O)OC1C#CCCCCC#C/C1=C\c1ccc2ccccc2c1` (stereo not given), the pIC50 is 4.55.
